Test results: ChEMBL document CHEMBL3870345, “Bioactive chemical constituents from the root bark of Morus australis” (Bioorg Med Chem Lett, 2017)
In brackets after ≈: the same amount, converted by molar mass.

Key:
RAW264.7 [1] = experiment: Inhibition of LPS-induced NO production in mouse RAW264.7 cells at 1.562 ug/ml measured after 24 hrs by Griess assay relative to LPS-treated control; format: functional; conditions: RAW264.7, 24 h
[2] = Cytotoxicity against mouse RAW264.7 cells assessed as cell viability at 3.125 ug/ml measured after 24 hrs in presence of LPS by MTT assay (reference value: 96.3 +/- 1%); format: toxicity; conditions: read-out: Activity
RAW264.7 [3] = experiment: Inhibition of LPS-induced NO production in mouse RAW264.7 cells at 3.125 ug/ml measured after 24 hrs by Griess assay relative to LPS-treated control; format: functional; conditions: RAW264.7, 24 h
[4] = Cytotoxicity against mouse RAW264.7 cells assessed as cell viability at 12.5 ug/ml measured after 24 hrs in presence of LPS by MTT assay (reference value: 96.3 +/- 1%); format: toxicity; conditions: read-out: Activity
[5] = Cytotoxicity against mouse RAW264.7 cells assessed as cell viability at 25 ug/ml measured after 24 hrs in presence of LPS by MTT assay (reference value: 96.3 +/- 1%); format: toxicity; conditions: read-out: Activity
[6] = Cytotoxicity against mouse RAW264.7 cells assessed as cell viability at 1.562 ug/ml measured after 24 hrs in presence of LPS by MTT assay (reference value: 96.3 +/- 1%); format: toxicity; conditions: read-out: Activity
RAW264.7 [7] = experiment: Inhibition of LPS-induced NO production in mouse RAW264.7 cells measured after 24 hrs by Griess assay; format: functional, cell-based; conditions: for IC50: RAW264.7, 24 h
RAW264.7 [8] = experiment: Inhibition of LPS-induced NO production in mouse RAW264.7 cells at 6.25 ug/ml measured after 24 hrs by Griess assay relative to LPS-treated control; format: functional; conditions: RAW264.7, 24 h
[9] = Antiplatelet aggregatory activity against New Zealand white rabbit platelets preincubated for 2 to 3 mins followed by ADP-addition measured after 4 mins by turbidometric method; format: functional, cell-based, Oryctolagus cuniculus; conditions: platelet
[10] = Antiplatelet aggregatory activity against New Zealand white rabbit platelets at 100 uM preincubated for 2 to 3 mins followed by ADP-addition measured after 4 mins by turbidometric method relative to vehicle control; format: functional, Oryctolagus cuniculus, Platelet
[11] = Antiplatelet aggregatory activity against New Zealand white rabbit platelets preincubated for 2 to 3 mins followed by arachidonic acid-addition measured after 4 mins by turbidometric method; format: functional, cell-based, Oryctolagus cuniculus; conditions: platelet
[12] = Cytotoxicity against mouse RAW264.7 cells assessed as cell viability at 50 ug/ml measured after 24 hrs in presence of LPS by MTT assay (reference value: 96.3 +/- 1%); format: toxicity; conditions: read-out: Activity
[13] = Antiplatelet aggregatory activity against New Zealand white rabbit platelets at 100 uM preincubated for 2 to 3 mins followed by arachidonic acid -addition measured after 4 mins by turbidometric method relative to vehicle control; format: functional, Oryctolagus cuniculus, Platelet
[14] = Antiplatelet aggregatory activity against New Zealand white rabbit platelets at 100 uM preincubated for 2 to 3 mins followed by PAF-addition measured after 4 mins by turbidometric method relative to vehicle control; format: functional, Oryctolagus cuniculus, Platelet
[15] = Cytotoxicity against mouse RAW264.7 cells assessed as cell viability at 6.25 ug/ml measured after 24 hrs in presence of LPS by MTT assay (reference value: 96.3 +/- 1%); format: toxicity; conditions: read-out: Activity
RAW264.7 [16] = experiment: Inhibition of LPS-induced NO production in mouse RAW264.7 cells at 12.5 ug/ml measured after 24 hrs by Griess assay relative to LPS-treated control; format: functional; conditions: RAW264.7, 24 h
[17] = Antiplatelet aggregatory activity against New Zealand white rabbit platelets at 50 uM preincubated for 2 to 3 mins followed by arachidonic acid -addition measured after 4 mins by turbidometric method relative to vehicle control; format: functional, Oryctolagus cuniculus, Platelet
[18] = Cytotoxicity against mouse RAW264.7 cells assessed as cell viability at 1.563 ug/ml measured after 24 hrs in presence of LPS by MTT assay (reference value: 96.3 +/- 1%); format: toxicity; conditions: read-out: Activity
RAW264.7 [19] = experiment: Inhibition of LPS-induced NO production in mouse RAW264.7 cells at 1.563 ug/ml measured after 24 hrs by Griess assay relative to LPS-treated control; format: functional; conditions: RAW264.7, 24 h
[20] = Antiplatelet aggregatory activity against New Zealand white rabbit platelets at 10 uM preincubated for 2 to 3 mins followed by PAF-addition measured after 4 mins by turbidometric method relative to vehicle control; format: functional, Oryctolagus cuniculus, Platelet
RAW264.7 [21] = experiment: Inhibition of LPS-induced NO production in mouse RAW264.7 cells at 25 ug/ml measured after 24 hrs by Griess assay relative to LPS-treated control; format: functional; conditions: RAW264.7, 24 h

| Structure (SMILES) | viability at 24 h, 3.125 ug/ml [2] | inhibition at 3.125 µg/mL (RAW264.7 [3]) | viability at 24 h, 12.5 ug/ml [4] | viability at 24 h, 25 ug/ml [5] | inhibition (RAW264.7 [7]) | IC50 (RAW264.7 [7]) | inhibition at 6.25 µg/mL (RAW264.7 [8]) | Activity [10] | viability at 24 h, 50 ug/ml [12] | Activity [13] | Activity [14] | viability at 24 h, 6.25 ug/ml [15] | inhibition at 12.5 µg/mL (RAW264.7 [16]) | further results |
| --- | --- | --- | --- | --- | --- | --- | --- | --- | --- | --- | --- | --- | --- | --- |
| O=[N+]([O-])/C=C\c1ccc(O)cc1 | 89% | 59.6% | 48.3% | 46.9% | Dose-dependent effect | 2.1 µg/mL (≈ 12.7 µM) | 60% | 96.35% | 11.9% | 96.03% | 73.02% | 82.2% |  | inhibition at 1.562 µg/mL (RAW264.7 [1]): 46.4%; viability at 24 h, 1.562 ug/ml [6]: 94.5%; IC50 [9]: 9.76 µM; IC50 [11]: 9.81 µM |
| CC(C)=CCc1c(-c2ccc(O)cc2O)oc2c3c(cc(O)c2c1=O)OC(C)(C)C=C3 [MORUSIN] | 94.5% | 15.1% | 73.8% | 69.6% | Dose-dependent effect | > 12.5 µg/mL | 23.3% | 60.22% | 23.1% | <60% | <60% | 83.3% | 39.3% |  |
| CC(C)=CC1Oc2cc(O)ccc2-c2oc3c4c(cc(O)c3c(=O)c21)OC(C)(C)C=C4 (centres undefined) [CYCLOMORUSIN] | 86.3% | 46.6% | 81.9% | 57.6% | Dose-dependent effect | 4.5 µg/mL (≈ 10.8 µM) | 54.1% | <60% | 14% | <60% | <60% | 86.2% | 73.7% |  |
| CC(=O)Oc1ccccc1C(=O)O [ASPIRIN] |  |  |  |  |  |  |  |  |  |  |  |  |  | Activity [17]: 90.62% |
| CC(=O)Oc1ccc(-c2oc3c4c(cc(O)c3c(=O)c2CC=C(C)C)OC(C)(C)C=C4)c(OC(C)=O)c1 | 91% | 58.7% | 36.6% | 13.9% | Dose-dependent effect | 2.4 µg/mL (≈ 4.76 µM) | 69.2% | 93.27% | 11.7% | 90.01% | 90.22% | 80.3% |  | viability at 24 h, 1.563 ug/ml [18]: 96%; IC50 [9]: 10.2 µM; inhibition at 1.563 µg/mL (RAW264.7 [19]): 40.4% |
| C=C(C)C(=O)c1c(-c2ccc(O)cc2O)oc2cc3c(c(O)c2c1=O)C=CC(C)(C)O3 |  |  |  |  |  |  |  | <60% |  | <60% | <60% |  |  |  |
| C=C(C)C(O)CC[C@]1(C)C=Cc2c(cc3oc(-c4ccc(O)cc4)cc(=O)c3c2O)O1 (some centres undefined) |  |  |  |  |  |  |  | <60% |  | <60% | <60% |  |  |  |
| CCCCCCCCCCCCCCCCCCNC(=O)OCC(COP(=O)([O-])OCC[n+]1ccsc1)OC (centres undefined) |  |  |  |  |  |  |  |  |  |  |  |  |  | Activity [20]: 85.96% |
| CC(C)(O)CCc1c(-c2ccc(O)cc2O)oc2c3c(cc(O)c2c1=O)OC(C)(C)C=C3 [MORUSINOL] | 95.9% | 42 to 45.8% | 69.5 to 82.1% | 36.9 to 49.2% | Dose-dependent effect | 4.1 to 4.6 µg/mL (≈ 9.35 to 10.5 µM) | 59 to 62.5% | 57.88 - 78.98% | 9.9 to 14.4% | 50.5% | <60% | 81.9 to 91.3% | 81.4% |  |
| CC1(C)C=Cc2c(cc(O)c3c(=O)c4c(oc23)-c2ccc(O)cc2OC(C(C)(C)O)C4)O1 (centres undefined) [NEOCYCLOMORUSIN] | 98.3% | 41.2% | 48.8% | 40.8% | Dose-dependent effect | 6.3 µg/mL (≈ 14.4 µM) | 50.8% | 98.57% | 12.8% | 99.7% | 99.63% | 82.4% |  |  |
| CC(C)=CCC/C(C)=C/Cc1c(-c2ccc(O)cc2O)oc2c(CC=C(C)C)c(O)cc(O)c2c1=O | 100% | 30% | 97.1% | 96.8% | Dose-dependent effect | > 25 µg/mL | 33.7% | 96.37% | 67% | 89.66% | 90.15% | 99.7% | 34.1% | inhibition at 25 µg/mL (RAW264.7 [21]): 35% |
